Data as given in PubChem BioAssay (NCI).
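Step 1: Grow cells in 96-well plates. Step 2: Expose to compound for 48 hours at 5 concentrations. Step 3: Interpolate endpoints linearly; if unreached, use highest concentration. The concentration for full growth arrest is given as TGI.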

Tests used:
Assay in all cases: NCI anticancer screen, dose series, 48 h
SW-620 colon = test system: SW-620 colon
MDA-MB-435 = test system: MDA-MB-435
UO-31 renal = test system: UO-31 renal
MCF7 breast = test system: MCF7 breast
LOX IMVI melanoma = test system: LOX IMVI melanoma
OVCAR-5 ovarian = test system: OVCAR-5 ovarian
SNB-19 CNS = test system: SNB-19 CNS
DU-145 prostate = test system: DU-145 prostate
SK-MEL-28 melanoma = test system: SK-MEL-28 melanoma
OVCAR-4 ovarian = test system: OVCAR-4 ovarian
TK-10 renal = test system: TK-10 renal
SK-OV-3 ovarian = test system: SK-OV-3 ovarian
ACHN renal = test system: ACHN renal
786-0 renal = test system: 786-0 renal
CAKI-1 renal = test system: CAKI-1 renal
U251 CNS = test system: U251 CNS
PC-3 prostate = test system: PC-3 prostate
UACC-62 melanoma = test system: UACC-62 melanoma
MDA-MB-231 breast = test system: MDA-MB-231 breast
BT-549 breast = test system: BT-549 breast
NCI/ADR-RES ovarian = test system: NCI/ADR-RES ovarian
SN12C renal = test system: SN12C renal
M14 melanoma = test system: M14 melanoma
EKVX NSCLC = test system: EKVX NSCLC
OVCAR-8 ovarian = test system: OVCAR-8 ovarian
SR leukemia = test system: SR leukemia
SF-295 CNS = test system: SF-295 CNS
NCI-H23 lung = test system: NCI-H23 lung
NCI-H460 lung = test system: NCI-H460 lung
HCT-116 colon = test system: HCT-116 colon
CCRF-CEM leukemia = test system: CCRF-CEM leukemia
HCC-2998 colon = test system: HCC-2998 colon
HCT-15 colon = test system: HCT-15 colon
KM12 colon = test system: KM12 colon
K-562 leukemia = test system: K-562 leukemia
NCI-H226 lung = test system: NCI-H226 lung
RPMI-8226 leukemia = test system: RPMI-8226 leukemia
UACC-257 melanoma = test system: UACC-257 melanoma
HOP-62 NSCLC = test system: HOP-62 NSCLC
IGROV1 ovarian = test system: IGROV1 ovarian
SK-MEL-5 melanoma = test system: SK-MEL-5 melanoma
MOLT-4 leukemia = test system: MOLT-4 leukemia
SF-268 CNS = test system: SF-268 CNS
MALME-3M melanoma = test system: MALME-3M melanoma
NCI-H522 lung = test system: NCI-H522 lung
HS 578T breast = test system: HS 578T breast
HOP-92 NSCLC = test system: HOP-92 NSCLC
MDA-N = test system: MDA-N
A549 NSCLC = test system: A549 NSCLC
T-47D breast = test system: T-47D breast
A498 renal = test system: A498 renal
HT29 colon = test system: HT29 colon
SK-MEL-2 melanoma = test system: SK-MEL-2 melanoma
COLO 205 colon = test system: COLO 205 colon
HL-60(TB) leukemia = test system: HL-60(TB) leukemia
OVCAR-3 ovarian = test system: OVCAR-3 ovarian
RXF 393 renal = test system: RXF 393 renal
SF-539 CNS = test system: SF-539 CNS
SNB-75 CNS = test system: SNB-75 CNS

Cc1[nH]c(=O)nc2nc3ccc(Cl)cc3c(NCCNCCO)c12
TGI (SW-620 colon): 19.6 µM
TGI (MDA-MB-435): 25.7 µM
TGI (UO-31 renal): 20.7 µM
TGI (MCF7 breast): 26.6 µM
TGI (LOX IMVI melanoma): 21 µM
TGI (OVCAR-5 ovarian): 26.1 µM
TGI (SNB-19 CNS): 21.4 µM
TGI (DU-145 prostate): 29.4 µM
TGI (SK-MEL-28 melanoma): 31.8 µM
TGI (OVCAR-4 ovarian): 26.2 µM
TGI (TK-10 renal): 33.1 µM
TGI (SK-OV-3 ovarian): 23.9 µM
TGI (ACHN renal): 27.4 µM
TGI (786-0 renal): 21.2 µM
TGI (CAKI-1 renal): 25.4 µM
TGI (U251 CNS): 21.2 µM
TGI (PC-3 prostate): 27.4 µM
TGI (UACC-62 melanoma): 24.3 µM
TGI (MDA-MB-231 breast): 24 µM
TGI (BT-549 breast): 30.5 µM
TGI (NCI/ADR-RES ovarian): 42.3 µM
TGI (SN12C renal): 19.8 µM
TGI (M14 melanoma): 25.8 µM
TGI (EKVX NSCLC): 23.8 µM
TGI (OVCAR-8 ovarian): 21.6 µM
TGI (SR leukemia): > 100 µM
TGI (SF-295 CNS): 30.2 µM
TGI (NCI-H23 lung): 21.5 µM
TGI (NCI-H460 lung): 25 µM
TGI (HCT-116 colon): 18.5 µM
TGI (CCRF-CEM leukemia): 28.1 µM
TGI (HCC-2998 colon): 26.5 µM
TGI (HCT-15 colon): 31.9 µM
TGI (KM12 colon): 23 µM
TGI (K-562 leukemia): > 100 µM
TGI (NCI-H226 lung): 29.8 µM
TGI (RPMI-8226 leukemia): > 100 µM
TGI (UACC-257 melanoma): 25 µM
TGI (HOP-62 NSCLC): 20.6 µM
TGI (IGROV1 ovarian): 25.4 µM
TGI (SK-MEL-5 melanoma): 25.4 µM
TGI (MOLT-4 leukemia): > 100 µM
TGI (SF-268 CNS): 27.9 µM
TGI (MALME-3M melanoma): 28.5 µM
TGI (NCI-H522 lung): 12.9 µM
TGI (HS 578T breast): 31.8 µM
TGI (HOP-92 NSCLC): 24.2 µM
TGI (MDA-N): 25.4 µM
TGI (A549 NSCLC): 33 µM
TGI (T-47D breast): 23.1 µM
TGI (A498 renal): 34.6 µM
TGI (HT29 colon): 21.9 µM
TGI (SK-MEL-2 melanoma): 28.3 µM
TGI (COLO 205 colon): 21.6 µM
TGI (HL-60(TB) leukemia): > 100 µM
TGI (OVCAR-3 ovarian): 25.2 µM
TGI (RXF 393 renal): 28.5 µM
TGI (SF-539 CNS): 20.6 µM

CCOC1(OCC)C2C=CC1C(COS(=O)(=O)c1ccc(C)cc1)C2COS(=O)(=O)c1ccc(C)cc1 (stereo not given)
TGI (SW-620 colon): > 100 µM
TGI (MDA-MB-435): > 100 µM
TGI (UO-31 renal): > 100 µM
TGI (MCF7 breast): > 100 µM
TGI (LOX IMVI melanoma): > 100 µM
TGI (OVCAR-5 ovarian): > 100 µM
TGI (SNB-19 CNS): > 100 µM
TGI (DU-145 prostate): > 100 µM
TGI (SK-MEL-28 melanoma): > 100 µM
TGI (OVCAR-4 ovarian): 79.2 µM
TGI (TK-10 renal): > 100 µM
TGI (SK-OV-3 ovarian): > 100 µM
TGI (SNB-75 CNS): > 100 µM
TGI (ACHN renal): > 100 µM
TGI (786-0 renal): > 100 µM
TGI (U251 CNS): > 100 µM
TGI (PC-3 prostate): 74.6 µM
TGI (UACC-62 melanoma): > 100 µM
TGI (MDA-MB-231 breast): 69.5 µM
TGI (BT-549 breast): > 100 µM
TGI (NCI/ADR-RES ovarian): > 100 µM
TGI (SN12C renal): > 100 µM
TGI (M14 melanoma): 96.5 µM
TGI (EKVX NSCLC): > 100 µM
TGI (OVCAR-8 ovarian): > 100 µM
TGI (SR leukemia): 58.6 µM
TGI (SF-295 CNS): > 100 µM
TGI (NCI-H23 lung): > 100 µM
TGI (NCI-H460 lung): > 100 µM
TGI (HCT-116 colon): 77.1 µM
TGI (CCRF-CEM leukemia): > 100 µM
TGI (HCC-2998 colon): > 100 µM
TGI (HCT-15 colon): > 100 µM
TGI (KM12 colon): > 100 µM
TGI (K-562 leukemia): > 100 µM
TGI (NCI-H226 lung): 91.1 µM
TGI (UACC-257 melanoma): 62.2 µM
TGI (HOP-62 NSCLC): > 100 µM
TGI (IGROV1 ovarian): > 100 µM
TGI (SK-MEL-5 melanoma): 31 µM
TGI (MOLT-4 leukemia): 99.3 µM
TGI (SF-268 CNS): > 100 µM
TGI (MALME-3M melanoma): 77.1 µM
TGI (NCI-H522 lung): 57.1 µM
TGI (HS 578T breast): > 100 µM
TGI (HOP-92 NSCLC): 48 µM
TGI (MDA-N): > 100 µM
TGI (A549 NSCLC): > 100 µM
TGI (T-47D breast): 85.1 µM
TGI (A498 renal): 54.9 µM
TGI (HT29 colon): > 100 µM
TGI (SK-MEL-2 melanoma): 80.9 µM
TGI (COLO 205 colon): 50.7 µM
TGI (HL-60(TB) leukemia): 42.4 µM
TGI (OVCAR-3 ovarian): > 100 µM
TGI (RXF 393 renal): > 100 µM
TGI (SF-539 CNS): > 100 µM
